Legend:
[1] = system: human iPS cells (253G1 cells); assay: Differentiation induction of human iPS cells into pancreatic hormone-producing cells (2), quantitative RT-PCR; format: cell-based; settings: 1 nM betagenin in steps (A2) to (D2), vs ACN control, GAPDH corrected
Description: As human iPS cells, used were 253G1 cells purchased from the cell bank at RIKEN. The cells were cultured/maintained in an ES cell culture medium (DMEM/ham F12, 20% KSR, nonessential amino acid, 2 mM L-glutamine, 0.1 mM 2-mercaptoethanol, 5.2 mM NaOH) with added 4 ng/mL FGF-2 (Global Stem) and penicillin/streptomycin (Nacalai Tesque, Inc.) along with SNL76/7 cells (DS Pharma Biomedical) treated with mitomycin-C. CTK (0.25% trypsin, 1 mg/mL Collagenase IV, 20% KSR, 1 mM CaCl2 in PBS) was used for cell detachment, and diluted at a ratio of 1:3 to 1:4 to perform passage culture.
The cells were detached with trypsin-EDTA 3 days before the start of differentiation induction, and plated at a cell density of 6.3×10^4 cells/cm2, and cultured for 1 day in an ES cell culture medium with added 10 μM Y-27632 (Wako), 4 ng/mL FGF-2 and penicillin/streptomycin along with STO cells treated with mitomycin-C. Subsequently, they were further cultured for 2 days in an ES cell culture medium with added 4 ng/mL FGF-2 and penicillin/streptomycin.
On the first day of the start of differentiation induction, the culture medium was replaced with a RPMI1640 culture medium (Nacalai Tesque, Inc.) with added 2% (v/v) FBS, 100 ng/mL activin A (SBI), 3 μM CHIR99021 (Axon Medchem) and 1 nM betagenin, and cultured for 1 day (Step (A2)). […]
The gene expressions of insulin, glucagon, somatostatin were confirmed by quantitative RT-PCR for cells (n=3 for each of the betagenin addition group and the control group) obtained from 253G1 cells via the above steps (A2) to (D2). Specifically, total RNA was first extracted from the cells using a SV Total RNA Isolation System (Promega), and reverse transcription reactions were performed with BioScript™ transcriptase (Bioline), and then quantitative PCR analysis was performed with LightCycler™ (Roche) using SYBR™ Green PCR Master Mix (Applied Biosystems). Note that the gene expression of GAPDH was determined by quantitative RT-PCR as an internal control. […]

[2] = system: human iPS cells (253G1 cells); assay: Differentiation induction of human iPS cells into pancreatic hormone-producing cells (1), quantitative RT-PCR; format: cell-based; settings: 3 nM betagenin in step (D2), 11 days, vs DMSO control, Day 10 cells taken as 1, FIG. 2
From the text: As human iPS cells, used were 253G1 cells purchased from the cell bank at RIKEN, TIG3/KOSM cells provided by Dr. Mitani at Saitama Medical University, 200-9 cells, a clone in which a reporter gene is introduced into TIG3/KOSM cells. TIG3/KOSM cells were established at The National Institute of Advanced Industrial Science and Technology by introducing 4 factors (the OCT gene, the KLF gene, the SOX gene, the MYC gene) into TIG-3 cells using Sendai virus (Nishimura, K. et al., J. Biol. Chem., 286, pp. 4760-4771 (2011)).
These cells were cultured/maintained in an ES cell culture medium (DMEM/ham F12, 20% KSR, nonessential amino acid, 2 mM L-glutamine, 0.1 mM 2-mercaptoethanol, 5.2 mM NaOH) with added 4 ng/mL FGF-2 (Global Stem) and penicillin/streptomycin (Nacalai Tesque, Inc.) along with SNL76/7 cells (DS Pharma Biomedical) treated with mitomycin-C. […]
The gene expression of insulin was confirmed by quantitative RT-PCR for the cells (n=2 for each of the betagenin addition group and the control group) obtained from 253G1 cells via the above steps (A2) to (D2). Specifically, total RNA was first extracted from the cells using a SV Total RNA Isolation System (Promega), and reverse transcription reactions were performed with BioScript™ transcriptase (Bioline), and then quantitative PCR analysis was performed using SYBR™ Green PCR Master Mix (Applied Biosystems). […]

betagenin: chemically synthesized peptide of SEQ ID NO: 1, fragment of human TM4SF20 from Position 170 to Position 229 (WRASSFHFDSEENKHRLIHFSVFLGLLLVGILEVLFGLSQIVIGFLGCLCGVSKRRSQIV; Peptide Sequence betagenin; listed as Homo sapiens)
increased: amount of expression of insulin (relative) ([1]; first day taken as 1, FIG. 6) | amount of expression of glucagon (relative) ([1]; first day taken as 1, FIG. 7) | amount of expression of somatostatin (relative) ([1]; first day taken as 1, FIG. 8) | amount of insulin expression (relative) [2]
